Assay results as given in patent US20230057033A1, “FLUOROGENIC BETA-LACTAMASE SUBSTRATE AND ASSOCIATED DETECTION METHOD” (MOLSID, priority 2019, published 2023).

Tested on: β-lactamase
Test: Detection of fluorescence of compound 15 with β-lactamase (microwell plate, plate fluorimeter)
Format: biochemical
Settings: 75 μ, 37° C., 10 U.mL^−1, fluorescence measured over time, FIG. 1
Method: The fluorescence of compound 15 was evaluated with and without a β-lactamase. The test was performed by incubation/chemical reaction in a microwell plate (75 μ, 37° C., 10 U.mL^−1). The fluorescence was measured over time by a plate fluorimeter.

O=C(Cc1cccs1)N[C@@H]1C(=O)N2C(C(=O)O)=C(COC(=O)NCC3CCCCN3C(=O)Oc3ccc(Cl)cc3-c3nc4ccc(Cl)cc4c(=O)[nH]3)CS[C@H]12 (stereo partly shown) [Compound 15]
fluorescence generated in the presence of β-lactamase (hydrolysis, fragmentation and release of ELF 97): intense fluorescence
